Measurements as given in patent US11554171B2, “Compounds and methods for the targeted degradation of bromodomain-containing proteins” (Arvinas Operations, Inc., priority 2015, dated 2023).

System: c-myc in 22RV-1 cells
Assay: Human c-myc ELISA assay
Assay type: cell-based
Settings: Homo sapiens; for Emax: 22Rv1, 18 h, read-out: Degradation of BRD4: Maximum inhibition (%) c-Myc ELISA in 22RV1 cells; for DC50: 22Rv1, read-out: Degradation of BRD4: DC50 (uM) c-Myc ELISA in 22RV1 cells
How it was run: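 22RV-1 cells treated 18 h with 8-point 1:3 compound dilutions (final top 300 nM or 1 μM, 0.1% DMSO). Cells lysed in RIPA buffer with protease/phosphatase inhibitors, and c-myc protein in cleared lysate quantified by ELISA against a standard curve. DC50 reported for c-myc suppression.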

Row | DC50 [µM] | SMILES | Emax [%]
1 | 0.1 to 1 | Cc1ncsc1-c1ccc([C@H](C)NC(=O)[C@H]2C[C@H](O)CN2C(=O)[C@@H](NC(=O)c2cc3cc(O[C@H]4C[C@@H](NC(=O)C[C@@H]5N=C(c6ccc(Cl)cc6)c6c(sc(C)c6C)-n6c(C)nnc65)C4)ccc3o2)C(C)(C)C)cc1 [Example 332] | 61
2 | < 0.01 | Cc1ncsc1-c1ccc([C@H](C)NC(=O)[C@@H]2C[C@@H](O)CN2C(=O)[C@@H](NC(=O)/C=C/c2cc(F)cc(O[C@H](C)CNC(=O)C[C@@H]3N=C(c4ccc(Cl)cc4)c4c(sc(C)c4C)-n4c(C)nnc43)c2)C(C)(C)C)cc1 [Example 202] | 94
3 | > 1 | Cc1ncsc1-c1ccc([C@H](C)NC(=O)[C@@H]2C[C@@H](O)CN2C(=O)[C@@H](C(C)C)n2cc(-c3cc(O[C@H]4C[C@H](NC(=O)C[C@@H]5N=C(c6ccc(Cl)cc6)c6c(sc(C)c6C)-n6c(C)nnc65)C4)ccn3)cn2)cc1 [Example 305] | 6.7
4 | 0.01 to 0.1 | Cc1ncsc1-c1ccc(CNC(=O)[C@@H]2C[C@@H](O)CN2C(=O)[C@@H](NC(=O)COCCCOc2ccc([C@@H](C)NC(=O)C[C@@H]3N=C(c4ccc(Cl)cc4)c4c(sc(C)c4C)-n4c(C)nnc43)cc2)C(C)(C)C)cc1 [Example 65] | 95.4
5 | 0.01 to 0.1 | Cc1ncsc1-c1ccc([C@H](C)NC(=O)[C@@H]2C[C@@H](O)CN2C(=O)[C@@H](NC(=O)COCCOCCCOc2ccc([C@H](C)NC(=O)C[C@@H]3N=C(c4ccc(Cl)cc4)c4c(sc(C)c4C)-n4c(C)nnc43)cc2)C(C)(C)C)cc1 [Example 34] | 99.7
6 | 0.1 to 1 | Cc1ncsc1-c1ccc([C@H](C)NC(=O)[C@@H]2C[C@@H](O)CN2C(=O)[C@@H](NC(=O)CN2CCN(C3CC4(C3)CN(C(=O)C[C@@H]3N=C(c5ccc(Cl)cc5)c5c(sc(C)c5C)-n5c(C)nnc53)C4)CC2)C(C)(C)C)cc1 [Example 360] | > 90
7 | 0.1 to 1 | Cc1ncsc1-c1ccc(CNC(=O)[C@@H]2C[C@@H](O)CN2C(=O)[C@@H](NC(=O)COCCOCCNC(=O)C[C@@H]2N=C(c3ccc(Cl)cc3)c3c(sc(C)c3C)-n3c(C)nnc32)C(C)(C)C)cc1 [Example 41, (2S,4R)-1-[(2S)-2-{2-[2-(2-{2-[(9S)-7-(4-chlorophenyl)-4,5,13-trimethyl-3-thia-1,8,11,12-tetraazatricyclo[8.3.0.0^2,^6]trideca-2(6),4,7,10,12-pentaen-9-yl]acetamido}ethoxy)ethoxy]acetamido}-3,3-dimethylbutanoyl]-4-hydroxy-N-{[4-(4-methyl-1,3-thiazol-5-yl)phenyl]methyl}pyrrolidine-2-carboxamide] | 94
8 | 0.01 to 0.1 | Cc1ncsc1-c1ccc([C@H](C)NC(=O)[C@@H]2C[C@@H](O)CN2C(=O)[C@@H](C(C)C)n2cc(-c3cccc(O[C@H]4C[C@H](NC(=O)C[C@@H]5N=C(c6ccc(Cl)cc6)c6c(sc(C)c6C)-n6c(C)nnc65)C4)c3)cn2)cc1 [Example 244] | 95.5
9 | 0.01 to 0.1 | Cc1ncsc1-c1ccc(CNC(=O)[C@@H]2C[C@@H](O)CN2C(=O)[C@H](C(C)C)n2cc(Oc3ccc(CNC(=O)C[C@@H]4N=C(c5ccc(Cl)cc5)c5c(sc(C)c5C)-n5c(C)nnc54)cc3)cn2)cc1 [Example 238] | 93.3
10 | > 1 | Cc1ncsc1-c1ccc([C@H](C)NC(=O)[C@H]2C[C@H](O)CN2C(=O)[C@@H](NC(=O)COc2ccc(O[C@H]3C[C@@H](NC(=O)C[C@@H]4N=C(c5ccc(Cl)cc5)c5c(sc(C)c5C)-n5c(C)nnc54)C3)nc2)C(C)(C)C)cc1 [Example 169] | 42.2
11 | 0.1 to 1 | Cc1ncsc1-c1ccc(CNC(=O)[C@@H]2C[C@@H](O)CN2C(=O)[C@@H](NC(=O)COCCN2CCN(c3ccc(CNC(=O)C[C@@H]4N=C(c5ccc(Cl)cc5)c5c(sc(C)c5C)-n5c(C)nnc54)cc3)CC2)C(C)(C)C)cc1 [Example 60] | 91
12 | < 0.01 | Cc1ncsc1-c1ccc([C@H](C)NC(=O)[C@@H]2C[C@@H](O)CN2C(=O)[C@@H](NC(=O)c2cc3cc(O[C@@H](C)CNC(=O)C[C@@H]4N=C(c5ccc(Cl)cc5)c5c(sc(C)c5C)-n5c(C)nnc54)ccc3o2)C(C)(C)C)cc1 [Example 205, (2S,4R)-1-[(2S)-2-[(5-{[(2S)-1-{2-[(9S)-7-(4-chlorophenyl)-4,5,13-trimethyl-3-thia-1,8,11,12-tetraazatricyclo[8.3.0.0^2,^6]trideca-2(6),4,7,10,12-pentaen-9-yl]acetamido}propan-2-yl]oxy}-1-benzofuran-2-yl)formamido]-3,3-dimethylbutanoyl]-4-hydroxy-N-[(1S)-1-[4-(4-methyl-1,3-thiazol-5-yl)phenyl]ethyl]pyrrolidine-2-carboxamide] | 91
13 | 0.01 to 0.1 | Cc1ncsc1-c1ccc(CNC(=O)[C@@H]2C[C@@H](O)CN2C(=O)[C@@H](NC(=O)COCCCCOc2ccc3c(c2)c2c(C(N)=O)cc(-c4c(C)noc4C)cc2n3Cc2ccccc2)C(C)(C)C)cc1 [Example 175] | 92
14 | 0.01 to 0.1 | Cc1sc2c(c1C)C(c1ccc(Cl)cc1)=N[C@@H](CC(=O)N[C@H]1C[C@H](Oc3ccc(CC(=O)N[C@H](C(=O)N4C[C@H](O)C[C@H]4C(=O)N[C@@H](C)c4ccc(-c5ncon5)cc4)C(C)(C)C)cc3)C1)c1nnc(C)n1-2 [Example 281] | 91.4
15 | < 0.01 | Cc1ncsc1-c1ccc([C@H](C)NC(=O)[C@@H]2C[C@@H](O)CN2C(=O)C(C(C)C)n2cc(-c3cc(F)cc(O[C@@H](C)CNC(=O)C[C@@H]4N=C(c5ccc(Cl)cc5)c5c(sc(C)c5C)-n5c(C)nnc54)c3)cn2)cc1 (stereo partly drawn) [Example 208] | 92
16 | 0.1 to 1 | Cc1ncsc1-c1ccc(CNC(=O)[C@@H]2C[C@@H](O)CN2C(=O)[C@@H](NC(=O)COCCO[C@H]2C[C@@H](NC(=O)C[C@@H]3N=C(c4ccc(Cl)cc4)c4c(sc(C)c4C)-n4c(C)nnc43)C2)C(C)(C)C)cc1 [Example 138] | 89.4
17 | 0.1 to 1 | Cc1ncsc1-c1ccc([C@H](C)NC(=O)[C@@H]2C[C@@H](O)CN2C(=O)[C@@H](NC(=O)CCCCC(=O)N2CCN(C(=O)C[C@@H]3N=C(c4ccc(Cl)cc4)c4c(sc(C)c4C)-n4c(C)nnc43)CC2)C(C)(C)C)cc1 [Example 319] | 78.5
18 | 0.01 to 0.1 | Cc1ncsc1-c1ccc([C@H](C)NC(=O)[C@@H]2C[C@@H](O)CN2C(=O)[C@@H](NC(=O)Cc2cccc(C(=O)N3CCN(C(=O)C[C@@H]4N=C(c5ccc(Cl)cc5)c5c(sc(C)c5C)-n5c(C)nnc54)CC3)c2)C(C)(C)C)cc1 [Example 326] | 92
19 | < 0.01 | Cc1ncsc1-c1ccc([C@H](C)NC(=O)[C@@H]2C[C@@H](O)CN2C(=O)[C@@H](NC(=O)CCCCOCCCNC(=O)C[C@@H]2N=C(c3ccc(Cl)cc3)c3c(sc(C)c3C)-n3c(C)nnc32)C(C)(C)C)cc1 [Example 176] | 90.3
20 | 0.01 to 0.1 | Cc1ncsc1-c1ccc([C@H](C)NC(=O)[C@@H]2C[C@@H](O)CN2C(=O)[C@@H](NC(=O)COCCC(=O)N2CCN(c3ccc([C@H](C)NC(=O)C[C@@H]4N=C(c5ccc(Cl)cc5)c5c(sc(C)c5C)-n5c(C)nnc54)cc3)CC2)C(C)(C)C)cc1 [Example 48, (2S,4R)-1-[(2S)-2-{2-[3-(4-{4-[(1S)-1-{2-[(9S)-7-(4-chlorophenyl)-4,5,13-trimethyl-3-thia-1,8,11,12-tetraazatricyclo[8.3.0.0^2,^6]trideca-2(6),4,7,10,12-pentaen-9-yl]acetamido}ethyl]phenyl}piperazin-1-yl)-3-oxopropoxy]acetamido}-3,3-dimethylbutanoyl]-4-hydroxy-N-[(1S)-1-[4-(4-methyl-1,3-thiazol-5-yl)phenyl]ethyl]pyrrolidine-2-carboxamide] | 98
21 | > 1 | Cc1ncsc1-c1ccc(CNC(=O)[C@@H]2C[C@@H](O)CN2C(=O)[C@@H](NC(=O)COCCCOCCCOc2ccc(NC(=O)C[C@@H]3N=C(c4ccc(Cl)cc4)c4c(sc(C)c4C)-n4cnnc43)cc2)C(C)(C)C)cc1 [Example 53] | 56
22 | 0.1 to 1 | Cc1ncsc1-c1ccc(CNC(=O)[C@@H]2C[C@@H](O)CN2C(=O)[C@@H](NC(=O)COCCOCCOCCOCCOCCNC(=O)C[C@@H]2N=C(c3ccc(Cl)cc3)c3c(sc(C)c3C)-n3c(C)nnc32)C(C)(C)C)cc1 [Example 7] | 93

Row | SMILES | DC50 [µM] | Emax [%]
23 | Cc1ncsc1-c1ccc(CNC(=O)[C@@H]2C[C@@H](O)CN2C(=O)[C@@H](NC(=O)COCCOCCOCCCCNC(=O)C[C@@H]2N=C(c3ccc(Cl)cc3)c3c(sc(C)c3C)-n3c(C)nnc32)C(C)(C)C)cc1 [Example 51, (2S,4R)-1-[(2S)-2-(2-{2-[2-(4-{2-[(9S)-7-(4-chlorophenyl)-4,5,13-trimethyl-3-thia-1,8,11,12-tetraazatricyclo[8.3.0.0^2,^6]trideca-2(6),4,7,10,12-pentaen-9-yl]acetamido}butoxy)ethoxy]ethoxy}acetamido)-3,3-dimethylbutanoyl]-4-hydroxy-N-{[4-(4-methyl-1,3-thiazol-5-yl)phenyl]methyl}pyrrolidine-2-carboxamide] | < 0.01 | 97
24 | Cc1ncsc1-c1ccc([C@H](C)NC(=O)[C@@H]2C[C@@H](O)CN2C(=O)[C@@H](NC(=O)COc2ccc(O[C@H]3C[C@H](NC(=O)C[C@@H]4N=C(c5ccc(Cl)cc5)c5c(sc(C)c5C)-n5c(C)nnc54)C3)nc2)C(C)(C)C)cc1 [Example 141, (2S,4R)-1-[(2S)-3,3-dimethyl-2-[2-({6-[(1,3trans)-3-{2-[(9S)-7-(4-chlorophenyl)-4,5,13-trimethyl-3-thia-1,8,11,12-tetraazatricyclo[8.3.0.0^2,^6]trideca-2(6),4,7,10,12-pentaen-9-yl]acetamido}cyclobutoxy]pyridin-3-yl}oxy)acetamido]butanoyl]-4-hydroxy-N-[(1S)-1-[4-(4-methyl-1,3-thiazol-5-yl)phenyl]ethyl]pyrrolidine-2-carboxamide] | < 0.01 | 98
